{
  "source": "ChEMBL document CHEMBL1151284",
  "about": "“Antimycobacterial scalarane-based sesterterpenes from the Red Sea sponge Hyrtios erecta” (2005)",
  "data": [
    {"system": "Mycobacterium tuberculosis", "assay": "Antimycobacterial activity against Mycobacterium tuberculosis H37Rv ATCC 27294 at 6.25 uM by microplate alamar blue assay", "format": "functional", "units": {"inhibition at 6.25 µM": "%"}, "values": [
      {"smiles": "CC1(C)CCC[C@]2(C)[C@H]3C[C@@H](O)[C@]4(C)[C@H]5COC(=O)C5=CC[C@H]4[C@]3(C)CC[C@@H]12", "inhibition at 6.25 µM": 16},
      {"smiles": "CC(=O)O[C@H]1C[C@H]2[C@]3(C)CC[C@H]4C(C)(C)CCC[C@]4(C)[C@H]3C[C@@H](O)[C@]2(C)[C@H]2OC(=O)C=C12", "inhibition at 6.25 µM": 40},
      {"smiles": "CC(=O)O[C@H]1CC[C@]2(C)[C@H]3C[C@@H](O)[C@]4(C)C5=C(CC[C@H]4[C@]3(C)CC[C@H]2C1(C)C)COC5=O", "inhibition at 6.25 µM": 13},
      {"smiles": "CC(=O)O[C@H]1C[C@H]2[C@]3(C)CC[C@H]4C(C)(C)CCC[C@]4(C)[C@H]3C[C@@H](O)[C@]2(C)C2=C1COC2=O", "note": "[SESTERSTATIN 7]", "inhibition at 6.25 µM": 63}
    ]}
  ]
}
